Source: PMC13516501 (Pharmaceuticals, 2026)

Assay: Single-dose, randomized, two-way crossover bioequivalence/pharmacokinetic studies A-D under fed conditions (plasma LC-MS/MS, NCA)
Details: reference formulation, Study C, metformin 850 mg, empagliflozin […] mg, n 35
Method: To ensure standardization, all subjects underwent at least 10 h of overnight pre-dose fasting on the study day. Participants then received a standardized high-fat, high-calorie breakfast (approximately 800 kcal). Dosing was administered 30 min after the start of this meal, followed by the intake of a 10% glucose solution (250 mL). The glucose solution was administered as a prophylactic measure to reduce the risk of hypoglycemia. It was not intended to simulate fed-state caloric intake beyond the standardized meal, in accordance with institutional clinical practice.
Each study period included a one-day treatment followed by a 14-day washout period. […] All adverse events, including duration, severity, causality, and outcomes, were strictly monitored and recorded by the principal investigator and medical staff throughout the study.
Promptly after collection, the samples were centrifuged at 3500 rpm for 10 min at 4 °C to separate the plasma. The harvested plasma was then transferred into appropriately labeled cryovials and immediately cryopreserved at −70 ± 15 °C until bioanalytical quantification. […]
The primary pharmacokinetic parameters evaluated to establish bioequivalence were the maximum observed plasma concentration (Cmax) and the area under the concentration–time curve from time zero to the last measurable concentration (AUC0-t). […]

With `CN(C)C(=N)N=C(N)N` [Metformin] the “AUC0-t (mean)” value was 13,288.1 ng⋅h/mL.
